This experiment deals with T1, human plasma protein factor Xa (Homo sapiens, UniProt P00742).
T1 construct: The human plasma protein factor Xa was purchased; purchased Haematologic Technologies (Essex Junction, Vt.); host or cells: human plasma
T1 sequence (P00742 235-488 limits assumed): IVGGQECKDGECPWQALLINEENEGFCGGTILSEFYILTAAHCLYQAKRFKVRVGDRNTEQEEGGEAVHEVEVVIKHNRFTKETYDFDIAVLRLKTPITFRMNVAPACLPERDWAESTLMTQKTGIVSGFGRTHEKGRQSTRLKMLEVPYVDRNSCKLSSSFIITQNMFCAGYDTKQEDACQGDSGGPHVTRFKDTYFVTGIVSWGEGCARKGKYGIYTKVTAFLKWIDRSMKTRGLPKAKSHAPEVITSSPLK
T1 sequence (P00742 41-179 partner limits assumed): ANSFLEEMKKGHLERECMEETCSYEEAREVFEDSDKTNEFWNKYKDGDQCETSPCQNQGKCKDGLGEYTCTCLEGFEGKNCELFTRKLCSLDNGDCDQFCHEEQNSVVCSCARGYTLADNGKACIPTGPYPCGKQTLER
In words: Factor Xa IC50 determination (cleavage of paranitroanilide substrate S-2765). As to conditions: factor Xa 1 nM, S-2765 100 μM, Tris buffered saline pH 7.4, read at 405 nm. It is filed as biochemical. An outline of the steps: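 Human plasma factor Xa (1 nM) preincubated 5 min at room temperature with inhibitor (0.01 nM–10 μM) in Tris-buffered saline pH 7.4 with 5 mM CaCl2, 0.1% BSA, 5% DMSO. S-2765 added at 100 μM final; pNA release followed at 405 nm for 2 min. IC50 from four-parameter fit of initial velocities.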
With `O=C(NCc1cn(-c2ccc(-n3ccccc3=O)cc2OCCN2CCCCC2)nn1)c1ccc(Cl)s1` [Compound 89, 5-Chloro-N-((1-(4-(2-oxopyridin-1(2H)-yl)-2-(2-(piperidin-1-yl)ethoxy)phenyl)-1H-1,2,3-triazol-4-yl)methyl)thiophene-2-carboxamide], the IC50 is at most 100 nM.

For the compound `O=C(NCc1cn(-c2ccc(-n3ccccc3=O)cc2C(=O)N2CCC(O)CC2)nn1)c1ccc(Cl)s1` [Compound 115, 5-Chloro-N-((1-(2-(4-hydroxypiperidine-1-carbonyl)-4-(2-oxopyridin-1(2H)-yl)phenyl)-1H-1,2,3-triazol-4-yl)methyl)thiophene-2-carboxamide], the IC50 was in the range of 100 to 500 nM.

In turn, `O=C(NCc1cn(-c2ccc(-n3ccccc3=O)cc2OC[C@@H](O)CO)nn1)c1ccc(Cl)s1` [Compound 79, 5-Chloro-N-((1-(2-((S)-2,3-dihydroxypropoxy)-4-(2-oxopyridin-1(2H)-yl)phenyl)-1H-1,2,3-triazol-4-yl)methyl)thiophene-2-carboxamide] yielded an IC50 of at most 100 nM.

On to `NC(=O)C1CCN(C(=O)c2cc(-n3ccccc3=O)ccc2-n2cc(CNC(=O)c3ccc(Cl)s3)nn2)CC1` [Compound 116, 1-(2-(4-((5-Chlorothiophene-2-carboxamido)methyl)-1H-1,2,3-triazol-1-yl)-5-(2-oxopyridin-1(2H)-yl)benzoyl)piperidine-4-carboxamide], for which the 50% inhibitory concentration (IC50) lay in the range of 100 to 500 nM.

In turn, `O=C(NCc1cn(-c2ccc(-n3ccccc3=O)cc2OCCn2cccc2)nn1)c1ccc(Cl)s1` [Compound 180, N-((1-(2-(2-(1H-Pyrrol-1-yl)ethoxy)-4-(2-oxopyridin-1(2H)-yl)phenyl)-1H-1,2,3-triazol-4-yl)methyl)-5-chlorothiophene-2-carboxamide] showed an IC50 of at most 100 nM.

As to `CS(=O)(=O)c1cc(-n2ccccc2=O)ccc1-n1cc(CNC(=O)c2ccc(Cl)s2)nn1` [Compound 52, 5-Chloro-N-((1-(2-(methylsulfonyl)-4-(2-oxopyridin-1(2H)-yl)phenyl)-1H-1,2,3-triazol-4-yl)methyl)thiophene-2-carboxamide], the IC50 was at most 100 nM.

`O=C(NCc1cn(-c2ccc(-n3ccccc3=O)cc2[N+](=O)[O-])nn1)c1ccc(Cl)s1` [Compound 44, 5-ChIoro-N-((1-(2-nitro-4-(2-oxopyridin-1(2H)-yl)phenyl)-1H-1,2,3-triazol-4-yl)methyl)thiophene-2-carboxamide] came in with an IC50 of at most 100 nM.

Regarding `O=C(NCc1cn(-c2ccc(-n3ccccc3=O)cc2OC(F)(F)F)nn1)c1ccc(Cl)s1` [Compound 99, 5-Chloro-N-((1-(4-(2-oxopyridin-1(2H)-yl)-2-(trifluoromethoxy)phenyl)-1H-1,2,3-triazol-4-yl)methyl)thiophene-2-carboxamide], the 50% inhibitory concentration (IC50) is at most 100 nM.

Consider `CN(C)C1CCN(c2cc(-n3ccccc3=O)ccc2-n2cc(CNC(=O)c3ccc(Cl)s3)nn2)CC1` [Compound 16, 5-Chloro-N-((1-(2-(4-(dimethylamino)piperidin-1-yl)-4-(2-oxopyridin-1(2H)-yl)phenyl)-1H-1,2,3-triazol-4-yl)methyl)thiophene-2-carboxamide], for which the IC50 was at most 100 nM.

Turning to `O=C(NCc1cn(-c2ccc(-n3ccccc3=O)cc2OCCc2ccccn2)nn1)c1ccc(Cl)s1` [Compound 168, 5-Chloro-N-((1-(4-(2-oxopyridin-1(2H)-yl)-2-(2-(pyridin-2-yl)ethoxy)phenyl)-1H-1,2,3-triazol-4-yl)methyl)thiophene-2-carboxamide], the IC50 is at most 100 nM.

In turn, `NCCCOc1cc(-n2ccccc2=O)ccc1-n1cc(CNC(=O)c2ccc(Cl)s2)nn1` [Compound 68, N-((1-(2-(3-Aminopropoxy)-4-(2-oxopyridin-1(2H)-yl)phenyl)-1H-1,2,3-triazol-4-yl)methyl)-5-chlorothiophene-2-carboxamide] showed an IC50 of at most 100 nM.

Regarding `O=C(NCc1cn(-c2ccc(-n3ccccc3=O)cc2CN2CCS(=O)(=O)CC2)nn1)c1ccc(Cl)s1` [Compound 163, 5-Chloro-N-((1-(4-(2-oxopyridin-1(2H)-yl)-2-(1,1,- dioxothiomorpholinomethyl)phenyl)-1H-1,2,3-triazol-4-yl)methyl)thiophene-2-carboxamide], the IC50 is at most 100 nM.

`CN(C)CCCOc1cc(-n2ccccc2=O)ccc1-n1cc(CNC(=O)c2ccc(Cl)s2)nn1` [Compound 92, 5-Chloro-N-((1-(2-(3-(dimethylamino)propoxy)-4-(2-oxopyridin-1(2H)-yl)phenyl)-1H-1,2,3-triazol-4-yl)methyl)thiophene-2-carboxamide] registered a 50% inhibitory concentration (IC50) of at most 100 nM.

In turn, `O=C(O)COc1cc(-n2ccccc2=O)ccc1-n1nnc(CNC(=O)c2ccc(Cl)s2)c1I` [Compound 152, 2-(2-(4-((5-Chlorothiophene-2-carboxamido)methyl)-5-iodo-1H-1,2,3-triazol-1-yl)-5-(2-oxopyridin-1(2H)-yl)phenoxy)acetic acid] had a half-maximal inhibitory concentration (IC50) of at most 100 nM.

As to `C[S+]([O-])c1cc(-n2ccccc2=O)ccc1-n1cc(CNC(=O)c2ccc(Cl)s2)nn1` (stereo not drawn) [Compound 51, 5-Chloro-N-((1-(2-(methylsulfoxy)-4-(2-oxopyridin-1(2H)-yl)phenyl)-1H-1,2,3-triazol-4-yl)methyl)thiophene-2-carboxamide], the IC50 was at most 100 nM.

`Nc1cc(-c2cc(-n3ccccc3=O)ccc2-n2cc(CNC(=O)c3ccc(Cl)s3)nn2)ccn1` [Compound 139, N-((1-(2-(2-Aminopyridin-4-yl)-4-(2-oxopyridin-1(2H)-yl)phenyl)-1H-1,2,3-triazol-4-yl)methyl)-5-chlorothiophene-2-carboxamide] gave an IC50 of at most 100 nM.

Regarding `O=C(NCc1cn(-c2ccc(-n3ccccc3=O)cc2OCCCN2CCOCC2)nn1)c1ccc(Cl)s1` [Compound 95, 5-Chloro-N-((1-(2-(3-morpholinopropoxy)-4-(2-oxopyridin-1(2H)-yl)phenyl)-1H-1,2,3-triazol-4-yl)methyl)thiophene-2-carboxamide], the IC50 is at most 100 nM.

In the case of `O=C(NCc1cn(-c2ccc(-n3ccccc3=O)cc2C(=O)NCCO)nn1)c1ccc(Cl)s1` [Compound 104, N-((1-(2-((2-Hydroxyethyl)carbamoyl)-4-(2-oxopyridin-1(2H)-yl)phenyl)-1H-1,2,3-triazol-4-yl)methyl)-5-chlorothiophene-2-carboxamide], the IC50 was in the range of 100 to 500 nM.

In turn, `Cc1nc(COc2cc(-n3ccccc3=O)ccc2-n2cc(CNC(=O)c3ccc(Cl)s3)nn2)cs1` [Compound 172, 5-Chloro-N-((1-(2-((2-methylthiazol-4-yl)methoxy)-4-(2-oxopyridin-1(2H)-yl)phenyl)-1H-1,2,3-triazol-4-yl)methyl)thiophene-2-carboxamide] came in with a half-inhibitory concentration (IC50) of at most 100 nM.

In turn, `COCCOc1cc(-n2ccccc2=O)ccc1-n1cc(CNC(=O)c2ccc(Cl)s2)nn1` [Compound 76, 5-Chloro-N-((1-(2-(2-methoxyethoxy)-4-(2-oxopyridin-1(2H)-yl)phenyl)-1H-1,2,3-triazol-4-yl)methyl)thiophene-2-carboxamide] had an IC50 of at most 100 nM.

For the compound `CN(C)C(=O)c1cc(-n2ccccc2=O)ccc1-n1cc(CNC(=O)c2ccc(Cl)s2)nn1` [Compound 103, 5-Chloro-N-((1-(2-(dimethylcarbamoyl)-4-(2-oxopyridin-1(2H)-yl)phenyl)-1H-1,2,3-triazol-4-yl)methyl)thiophene-2-carboxamide], the IC50 is at most 100 nM.

For orientation: IC50 means the concentration that inhibits the measured activity by half.

The values above are taken from patent publication US20110160196A1, “FACTOR XA INHIBITORS” (Millennium Pharmaceuticals, Inc., priority 2007, published 2011).
